From patent US8034800B2, “Antiviral macrocycle derivatives and metal complexes, incorporating bridged macrocycles” (University of Hull, priority 2004, dated 2011)

Key:
[1] = system: HIV-2 (ROD); assay: Anti-HIV activity in MT-4 cells, tetrazolium viability, HIV-2; format: cell-based; settings: Human immunodeficiency virus 2, MT4, 120 h, 5 d, read-out: av IC50
Text: (§1) Anti-HIV activity and cytoxicity measurements in MT-4 cells were based on viability of cells that had been infected or not infected with HIV-1 (IIIB) and HIV-2 (ROD) ×4 strainsexposed to various concentrations of the test compound [following the procedure of S. Harada et al., Science, 1985, 229, 563]. The MT-4 cells were allowed to proliferate for 5 d after which time the number of viable cells was quantified by a tetrazolium-based colorimetric method [described by R. Pauwels et al., Journal of Virology Methods, 1988, 20, 309.]

[2] = Cytotoxicity in MT-4 cells, tetrazolium viability; format: cell-based; settings: human, printed in HIV-1 line, read-out: av CC50
Text: as §1

[3] = system: MT-4 cells; assay: Cytotoxicity in MT-4 cells, tetrazolium viability; format: cell-based; settings: 5 d, printed in HIV-2 line, read-out: av CC50
Text: as §1

[4] = system: HIV-1 (IIIB); assay: Anti-HIV activity in MT-4 cells, tetrazolium viability, HIV-1; format: cell-based; settings: Human immunodeficiency virus 1, MT4, 120 h, 5 d, read-out: av IC50
Text: as §1

[5] = target: CXCR4 chemokine receptor (Homo sapiens, UniProt P61073); assay: Competition with CXCR4 binding antibodies, flow cytometry; settings: competition with anti-human CXCR4 mAb (44708.111), serial dilutions of compound added simultaneously with antibody
CXCR4 chemokine receptor, sequence (P61073 whole entry): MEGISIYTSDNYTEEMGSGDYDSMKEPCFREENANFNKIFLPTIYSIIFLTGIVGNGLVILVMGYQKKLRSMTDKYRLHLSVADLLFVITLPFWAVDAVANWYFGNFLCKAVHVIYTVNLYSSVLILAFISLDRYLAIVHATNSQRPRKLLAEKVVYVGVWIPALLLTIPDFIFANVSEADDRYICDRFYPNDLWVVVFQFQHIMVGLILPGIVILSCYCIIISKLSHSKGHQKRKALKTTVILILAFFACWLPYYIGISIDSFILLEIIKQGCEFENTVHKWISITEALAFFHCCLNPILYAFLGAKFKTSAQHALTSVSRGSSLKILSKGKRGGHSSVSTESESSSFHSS
Description: (§2) The antibodies used in this study were: unconjugated mouse anti-human CXCR4 mAbs clones 44708.111, 44716.111, PE-conjugated clone 44717.111 and 12G5 (R&D Systems Europe, Abingdon, UK). Cells were preincubated with 20 μM of the compound for 30 mins. Thereafter cells were incubated with each of the mAbs for a further 60 mins. In the case of the direct binding assay, serial dilutions of the compound were added simultaneously with the antibody (44708.111). Cells were then incubated with a secondary fluorescein isothiocyanate-conjugated anti-mouse antibody (IgG-FITC) (Serotec, UK) for 30 mins. Cell samples were analysed by a FACScan flow cytometer (BD Biosciences Europe. Erembodegem, Belgium). Data were acquired and analysed with CellQuest software (Becton Dickinson) on an Apple Macintosh computer. Relative percentage inhibitions were calculated from the mean fluorescent intensity of the whole cell population and relative inhibitory concentration (IC) values were obtained by non linear regression analyses using the Graphpad prism software.

[6] = target: T1, CXCR4 receptor (Homo sapiens, UniProt P61073); assay: Binding of rhodamine-tagged macrocycles to jurkat cells, flow cytometry; settings: FIG. 1 / FIG. 2
T1 construct: endogenous in cells; host or cells: Jurkat cells
T1 sequence (P61073 whole entry): as above
Description: Two monocyclam compounds were tagged with rhodamine and specific binding to the CXCR4 receptor was analysed by incubating with jurkat cells. Cell samples were analysed by flow cytometry as described in example 8, below.
as §2

Compound: c1cc(CN2CCCN3CCN(CCCNCC2)CC3)ccc1CN1CCCN2CCN(CCCNCC1)CC2 [Compound 16]
- IC50 [1]: 23.2 µM
- CC50 at 5 d [2]: > 225 µM
- CC50 [3]: > 225 µM
- IC50 [4]: 6.98 µM
- IC50 [5]: 17 µM
- IC90 [5]: > 17 µM

Compound: CCN(CC)c1ccc2c(-c3ccc(NC(=S)Nc4ccc(CN5CCCN6CCN(CCCNCC5)CC6)cc4)cc3C(=O)O)c3ccc(=[N+](CC)CC)cc-3oc2c1 [Rhodamine-Bridged Macrocycle Conjugate]
- binding to the CXCR4 chemokine receptor (flow cytometry histogram) [6]: binding of the chelator to the CXCR4 chemokine receptor
